# Assay results reported in PMC4503722, “Novel Phenotypic Outcomes Identified for a Public Collection of Approved Drugs from a Publicly Accessible Panel of Assays” (PLoS ONE, 2015).
# Like-named read-outs stand apart in the source and are kept apart here.
# Key:
# [1] = test system: endothelial tube formation in co-cultures of ECFCs and ADSCs treated with VEGF; assay: cells; format: cell-based, human; conditions: for IC50: read-out: VEGF_ADSC\ECFC Angio CD31 TubeArea summarized IC50
# HCT116 = assay: cells; format: cell-based; conditions: assay number 25, basal; for IC50: read-out: Basal_Viability ATP HCT116 summarized IC50
# hp70S6K1 (RPS6KB1) = molecular target: T1, hp70S6K1 (RPS6KB1) (Homo sapiens, UniProt P23443); assay: Cerep LANCE kinase assay hp70S6K1 (S1 assay 31); format: biochemical; conditions: assay number 31; for IC50: read-out: hp70S6K1 LANCE summarized IC50
# T1 construct: purchased Cerep (LANCE kinase assay platform, contract assay)
# hFLT3 = molecular target: T2, hFLT3 (Homo sapiens, UniProt P36888); assay: Cerep LANCE kinase assay hFLT3 (S1 assay 35); format: biochemical; conditions: assay number 35; for IC50: read-out: hFLT3 LANCE summarized IC50
# T2 construct: purchased Cerep (LANCE kinase assay platform, contract assay)
# hKDR = molecular target: T3, hKDR (Homo sapiens, UniProt P35968); assay: Cerep LANCE kinase assay hKDR (S1 assay 32); format: biochemical; conditions: assay number 32; for IC50: read-out: hKDR LANCE summarized IC50
# T3 construct: purchased Cerep (LANCE kinase assay platform, contract assay)
# DLD-1 = assay: cells; format: cell-based; conditions: assay number 23, basal; for IC50: read-out: Basal_Viability ATP DLD-1 summarized IC50
# Colo320 = assay: cells; format: cell-based; conditions: assay number 27, basal; for IC50: read-out: Basal_Viability ATP Colo 320 summarized IC50
# hJAK2 = molecular target: T4, hJAK2 (Homo sapiens, UniProt O60674); assay: Cerep LANCE kinase assay hJAK2 (S1 assay 33); format: biochemical; conditions: assay number 33; for IC50: read-out: hJAK2 LANCE summarized IC50
# T4 construct: purchased Cerep (LANCE kinase assay platform, contract assay)
# hGSK3b = molecular target: T5, hGSK3b (Homo sapiens, UniProt P49841); assay: Cerep LANCE kinase assay hGSK3b (S1 assay 34); format: biochemical; conditions: assay number 34; for IC50: read-out: hGSK3b LANCE summarized IC50
# T5 construct: purchased Cerep (LANCE kinase assay platform, contract assay)
# HeLa cells = assay: cells; format: cell-based; conditions: for Hela CellCycMod PI S Phase IC50/EC50: assay number 15;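 on Hela CellCycMod PI 4N summarized IC50: value tracks stimulation of 4N DNA content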
# [2] = test system: ECFC/ADSC co-culture cell nuclei number; conditions: for IC50: read-out: VEGF_ADSC\ECFC Angio Hoechst NucArea summarized IC50
# SW480 = assay: cells; format: cell-based; conditions: assay number 24, basal; for IC50: read-out: Basal_Viability ATP SW480 summarized IC50
# SNU-C1 = assay: cells; format: cell-based; conditions: assay number 30, basal; for IC50: read-out: Basal_Viability ATP SNU-C1 summarized IC50
# HT-29 = assay: cells; format: cell-based; conditions: assay number 28, basal; for IC50: read-out: Basal_Viability ATP HT-29 summarized IC50
# RKO = assay: cells; format: cell-based; conditions: assay number 29, basal; for IC50: read-out: Basal_Viability ATP RKO summarized IC50
# [3] = test system: HCT116 cells treated with a GSK3β inhibitor; assay: cells; format: cell-based; conditions: assay number 26, GSK3b inhibitor pretreated
# [4] = assay number 14, 2N, read-out: Hela CellCycMod PI 2N summarized IC50
# [5] = assay number 16, 4N, read-out: Hela CellCycMod PI 4N summarized IC50
# [6] = assay number 17, MI, read-out: Hela CellCycMod PI MI summarized IC50
# T3 sequence (P35968 20-1356): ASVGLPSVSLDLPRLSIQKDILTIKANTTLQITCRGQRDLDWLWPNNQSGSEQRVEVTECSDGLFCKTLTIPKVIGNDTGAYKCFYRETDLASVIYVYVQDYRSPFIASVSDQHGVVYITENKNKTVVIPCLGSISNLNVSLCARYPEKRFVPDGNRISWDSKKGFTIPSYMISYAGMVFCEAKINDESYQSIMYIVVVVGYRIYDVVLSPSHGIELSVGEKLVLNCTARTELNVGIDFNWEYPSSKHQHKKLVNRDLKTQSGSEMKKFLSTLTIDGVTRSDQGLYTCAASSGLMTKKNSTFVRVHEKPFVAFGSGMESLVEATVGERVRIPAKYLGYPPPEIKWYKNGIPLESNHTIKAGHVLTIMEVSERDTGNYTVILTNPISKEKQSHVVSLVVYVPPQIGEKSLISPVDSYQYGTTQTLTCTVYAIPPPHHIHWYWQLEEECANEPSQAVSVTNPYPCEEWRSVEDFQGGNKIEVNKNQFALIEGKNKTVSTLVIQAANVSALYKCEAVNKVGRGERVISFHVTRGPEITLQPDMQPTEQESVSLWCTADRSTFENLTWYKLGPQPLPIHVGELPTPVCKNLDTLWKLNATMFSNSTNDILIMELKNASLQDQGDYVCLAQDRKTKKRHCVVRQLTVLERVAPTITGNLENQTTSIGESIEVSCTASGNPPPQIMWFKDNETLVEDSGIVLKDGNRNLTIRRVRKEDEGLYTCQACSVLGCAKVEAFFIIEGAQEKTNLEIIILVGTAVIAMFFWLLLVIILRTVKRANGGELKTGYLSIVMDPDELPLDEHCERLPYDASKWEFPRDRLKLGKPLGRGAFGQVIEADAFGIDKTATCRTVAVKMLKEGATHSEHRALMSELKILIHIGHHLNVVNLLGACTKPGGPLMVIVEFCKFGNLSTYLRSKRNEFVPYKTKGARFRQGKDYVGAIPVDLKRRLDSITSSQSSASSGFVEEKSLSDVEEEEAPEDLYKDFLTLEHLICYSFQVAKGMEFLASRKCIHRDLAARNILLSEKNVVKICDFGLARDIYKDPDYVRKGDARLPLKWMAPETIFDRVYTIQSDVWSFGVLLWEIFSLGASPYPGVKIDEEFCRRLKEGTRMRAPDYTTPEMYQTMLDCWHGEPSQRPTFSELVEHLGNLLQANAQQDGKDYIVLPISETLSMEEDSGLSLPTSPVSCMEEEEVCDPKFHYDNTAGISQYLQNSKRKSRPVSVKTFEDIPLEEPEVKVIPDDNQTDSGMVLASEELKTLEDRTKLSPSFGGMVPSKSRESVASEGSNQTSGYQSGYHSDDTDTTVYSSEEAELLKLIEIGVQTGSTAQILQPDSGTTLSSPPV
# T1 sequence (P23443 whole entry): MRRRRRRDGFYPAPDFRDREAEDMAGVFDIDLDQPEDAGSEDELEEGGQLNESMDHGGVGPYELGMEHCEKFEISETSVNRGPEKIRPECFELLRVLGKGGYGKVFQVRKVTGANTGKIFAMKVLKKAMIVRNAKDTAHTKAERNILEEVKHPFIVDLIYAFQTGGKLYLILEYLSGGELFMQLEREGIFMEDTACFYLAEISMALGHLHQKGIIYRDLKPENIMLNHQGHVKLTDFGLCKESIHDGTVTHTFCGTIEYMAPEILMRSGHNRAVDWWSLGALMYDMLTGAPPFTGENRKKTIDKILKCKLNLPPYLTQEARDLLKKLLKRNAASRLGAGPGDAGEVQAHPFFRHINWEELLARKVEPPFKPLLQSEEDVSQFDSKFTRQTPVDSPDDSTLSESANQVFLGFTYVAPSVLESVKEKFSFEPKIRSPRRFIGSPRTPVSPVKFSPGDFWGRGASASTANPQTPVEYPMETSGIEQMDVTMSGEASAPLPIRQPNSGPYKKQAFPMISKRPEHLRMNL
# T5 sequence (P49841 whole entry): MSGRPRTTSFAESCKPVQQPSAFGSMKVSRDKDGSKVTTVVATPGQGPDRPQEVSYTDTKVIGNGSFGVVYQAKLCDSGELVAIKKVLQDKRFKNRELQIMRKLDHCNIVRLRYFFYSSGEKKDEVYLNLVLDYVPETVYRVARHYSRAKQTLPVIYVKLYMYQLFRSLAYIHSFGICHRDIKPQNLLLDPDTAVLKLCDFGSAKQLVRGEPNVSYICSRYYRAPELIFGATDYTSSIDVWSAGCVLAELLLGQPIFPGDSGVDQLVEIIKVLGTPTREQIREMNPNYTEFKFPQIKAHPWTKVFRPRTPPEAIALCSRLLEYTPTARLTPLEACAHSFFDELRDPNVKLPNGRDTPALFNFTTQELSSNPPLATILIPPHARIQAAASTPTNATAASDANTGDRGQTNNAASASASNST
# T2 sequence (P36888 27-993): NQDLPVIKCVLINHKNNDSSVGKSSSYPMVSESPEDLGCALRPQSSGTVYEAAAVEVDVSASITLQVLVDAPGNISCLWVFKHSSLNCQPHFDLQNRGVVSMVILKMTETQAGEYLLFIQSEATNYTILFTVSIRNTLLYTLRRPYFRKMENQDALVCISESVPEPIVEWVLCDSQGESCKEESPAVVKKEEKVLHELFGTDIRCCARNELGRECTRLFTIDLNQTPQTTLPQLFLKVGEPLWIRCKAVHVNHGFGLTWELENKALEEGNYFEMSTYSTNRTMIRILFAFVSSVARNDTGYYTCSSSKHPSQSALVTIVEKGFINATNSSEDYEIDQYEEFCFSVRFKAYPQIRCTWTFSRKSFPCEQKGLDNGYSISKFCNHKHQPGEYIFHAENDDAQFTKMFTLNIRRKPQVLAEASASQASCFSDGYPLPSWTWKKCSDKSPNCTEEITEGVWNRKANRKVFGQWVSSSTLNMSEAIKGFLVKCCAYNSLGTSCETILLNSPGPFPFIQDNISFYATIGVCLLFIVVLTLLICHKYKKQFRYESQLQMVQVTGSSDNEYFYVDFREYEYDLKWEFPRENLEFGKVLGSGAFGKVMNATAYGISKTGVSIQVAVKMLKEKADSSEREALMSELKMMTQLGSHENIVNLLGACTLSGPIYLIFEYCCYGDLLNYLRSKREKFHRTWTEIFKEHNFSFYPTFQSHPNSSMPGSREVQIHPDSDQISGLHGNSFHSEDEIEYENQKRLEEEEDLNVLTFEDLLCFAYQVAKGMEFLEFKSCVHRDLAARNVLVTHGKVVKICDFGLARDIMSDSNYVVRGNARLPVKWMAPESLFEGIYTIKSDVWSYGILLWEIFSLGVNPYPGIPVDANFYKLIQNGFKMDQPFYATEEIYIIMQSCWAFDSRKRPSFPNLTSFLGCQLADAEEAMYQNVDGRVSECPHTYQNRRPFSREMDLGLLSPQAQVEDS
# T4 sequence (O60674 whole entry): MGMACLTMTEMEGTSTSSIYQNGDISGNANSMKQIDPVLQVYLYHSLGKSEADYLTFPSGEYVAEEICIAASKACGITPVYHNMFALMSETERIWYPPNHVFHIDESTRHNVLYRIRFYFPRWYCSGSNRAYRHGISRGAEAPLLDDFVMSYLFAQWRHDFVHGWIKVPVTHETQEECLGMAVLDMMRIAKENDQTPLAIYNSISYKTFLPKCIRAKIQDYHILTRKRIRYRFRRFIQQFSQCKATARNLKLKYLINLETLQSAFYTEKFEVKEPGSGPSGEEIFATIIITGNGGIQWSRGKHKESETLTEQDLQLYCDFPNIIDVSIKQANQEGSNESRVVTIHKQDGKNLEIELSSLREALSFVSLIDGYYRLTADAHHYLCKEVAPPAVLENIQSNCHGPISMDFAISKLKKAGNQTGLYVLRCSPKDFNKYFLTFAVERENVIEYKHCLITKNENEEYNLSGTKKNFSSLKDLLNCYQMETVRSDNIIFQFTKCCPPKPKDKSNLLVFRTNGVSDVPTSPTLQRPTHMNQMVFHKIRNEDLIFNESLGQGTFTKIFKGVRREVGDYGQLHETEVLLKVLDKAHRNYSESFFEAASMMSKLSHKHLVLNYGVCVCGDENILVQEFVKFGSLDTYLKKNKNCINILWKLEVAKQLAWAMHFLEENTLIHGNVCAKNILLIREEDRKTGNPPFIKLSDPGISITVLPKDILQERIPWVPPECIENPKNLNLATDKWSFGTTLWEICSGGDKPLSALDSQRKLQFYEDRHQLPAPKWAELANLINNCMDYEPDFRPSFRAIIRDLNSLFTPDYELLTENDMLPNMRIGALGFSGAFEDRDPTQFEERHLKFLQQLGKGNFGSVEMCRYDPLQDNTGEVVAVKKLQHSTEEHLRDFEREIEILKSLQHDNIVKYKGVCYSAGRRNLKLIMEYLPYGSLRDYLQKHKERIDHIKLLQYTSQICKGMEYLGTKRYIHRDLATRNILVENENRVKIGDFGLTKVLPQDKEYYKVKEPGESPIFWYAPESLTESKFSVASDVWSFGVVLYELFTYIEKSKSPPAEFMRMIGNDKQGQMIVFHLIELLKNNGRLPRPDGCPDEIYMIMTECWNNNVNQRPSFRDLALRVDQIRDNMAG
smiles,measurement,setting,value
COc1ccc(-c2ccc3cc(C(=O)O)ccc3c2)cc1C12CC3CC(CC(C3)C1)C2 [NCGC00164617-04],VEGF_ADSC\ECFC Angio CD31 TubeArea IC50/EC50,[1],523.6 nM
same,Basal_Viability ATP HCT116 IC50/EC50,HCT116,589.7 nM
same,hp70S6K1 LANCE IC50/EC50,hp70S6K1 (RPS6KB1),> 20000 nM
same,hFLT3 LANCE IC50/EC50,hFLT3,> 20000 nM
same,hKDR LANCE IC50/EC50,hKDR,7100 nM
same,Basal_Viability ATP DLD-1 IC50/EC50,DLD-1,597.1 nM
same,Basal_Viability ATP Colo 320 IC50/EC50,Colo320,787.1 nM
same,hJAK2 LANCE IC50/EC50,hJAK2,5570 nM
same,hGSK3b LANCE IC50/EC50,hGSK3b,7250 nM
same,Hela CellCycMod PI 2N IC50/EC50,"HeLa cells; assay number 14, 2N",> 10000 nM
same,Hela CellCycMod PI S Phase IC50/EC50,HeLa cells,> 10000 nM
same,Hela CellCycMod PI 4N IC50/EC50,"HeLa cells; assay number 16, 4N",> 10000 nM
same,Hela CellCycMod PI MI IC50/EC50,"HeLa cells; assay number 17, MI",> 10000 nM
same,Hela CellCycMod PI Cell Number IC50/EC50,"HeLa cells; assay number 18, cell number",5494.3 nM
same,VEGF_ADSC\ECFC Angio Hoechst NucArea IC50/EC50,[2],> 10000 nM
same,Basal_Viability ATP SW480 IC50/EC50,SW480,405.1 nM
same,Basal_Viability ATP SNU-C1 IC50/EC50,SNU-C1,1779.8 nM
same,Basal_Viability ATP HT-29 IC50/EC50,HT-29,1124.8 nM
same,Basal_Viability ATP RKO IC50/EC50,RKO,443.5 nM
Oc1c(Cl)cc(Cl)c2cccnc12 [NCGC00095264-04],IC50,[1],2000 nM
same,IC50,HCT116,47.5 nM
same,IC50,hp70S6K1 (RPS6KB1),> 20000 nM
same,IC50,hFLT3,> 20000 nM
same,IC50,hKDR,> 20000 nM
same,IC50,DLD-1,409 nM
same,IC50,Colo320,49.3 nM
same,IC50,hJAK2,> 20000 nM
same,IC50,hGSK3b,> 20000 nM
same,IC50,HeLa cells; [4],> 10000 nM
same,IC50,HeLa cells; [5],> 10000 nM
same,IC50,HeLa cells; [6],> 10000 nM
same,IC50,[2],> 10000 nM
same,IC50,SW480,43.8 nM
same,IC50,[3]; read-out: GSK3b inh pretreated_Viability ATP HCT116 summarized IC50,39.3 nM
same,IC50,SNU-C1,495 nM
same,IC50,HT-29,> 20000 nM
same,IC50,RKO,62.7 nM
COc1c(C)c2c(c(O)c1C/C=C(\C)CCC(=O)OCCN1CCOCC1)C(=O)OC2 [NCGC00159459-04],VEGF_ADSC\ECFC Angio CD31 TubeArea IC50/EC50,[1],1260.5 nM
same,Basal_Viability ATP HCT116 IC50/EC50,HCT116,67.2 nM
same,hp70S6K1 LANCE IC50/EC50,hp70S6K1 (RPS6KB1),> 20000 nM
same,hFLT3 LANCE IC50/EC50,hFLT3,> 20000 nM
same,hKDR LANCE IC50/EC50,hKDR,> 20000 nM
same,Basal_Viability ATP DLD-1 IC50/EC50,DLD-1,> 20000 nM
same,Basal_Viability ATP Colo 320 IC50/EC50,Colo320,1 nM
same,hJAK2 LANCE IC50/EC50,hJAK2,> 20000 nM
same,hGSK3b LANCE IC50/EC50,hGSK3b,> 20000 nM
same,Hela CellCycMod PI 2N IC50/EC50,"HeLa cells; assay number 14, 2N",> 10000 nM
same,Hela CellCycMod PI S Phase IC50/EC50,HeLa cells,14.7 nM
same,Hela CellCycMod PI 4N IC50/EC50,"HeLa cells; assay number 16, 4N",> 10000 nM
same,Hela CellCycMod PI MI IC50/EC50,"HeLa cells; assay number 17, MI",> 10000 nM
same,Hela CellCycMod PI Cell Number IC50/EC50,"HeLa cells; assay number 18, cell number",> 10000 nM
same,VEGF_ADSC\ECFC Angio Hoechst NucArea IC50/EC50,[2],> 10000 nM
same,Basal_Viability ATP SW480 IC50/EC50,SW480,2597.4 nM
same,GSK3b inh pretreated_Viability ATP HCT116 IC50/EC50,[3],49.8 nM
same,Basal_Viability ATP SNU-C1 IC50/EC50,SNU-C1,> 20000 nM
same,Basal_Viability ATP HT-29 IC50/EC50,HT-29,> 20000 nM
same,Basal_Viability ATP RKO IC50/EC50,RKO,164.8 nM
Oc1c(I)cc(I)c2cccnc12 [NCGC00018098-07],IC50,[1],2390 nM
same,IC50,HCT116,41 nM
same,IC50,hp70S6K1 (RPS6KB1),> 20000 nM
same,IC50,hFLT3,> 20000 nM
same,IC50,hKDR,> 20000 nM
same,IC50,DLD-1,17.8 nM
same,IC50,Colo320,21.3 nM
same,IC50,hJAK2,> 20000 nM
same,IC50,hGSK3b,> 20000 nM
same,IC50,HeLa cells; [4],> 10000 nM
same,IC50,HeLa cells; [5],> 10000 nM
same,IC50,HeLa cells; [6],> 10000 nM
same,IC50,"HeLa cells; assay number 18, cell number, read-out: Hela CellCycMod PI Cell Number summarized IC50",> 10000 nM
same,IC50,[2],> 10000 nM
same,IC50,SW480,3.6 nM
same,IC50,SNU-C1,38.7 nM
same,IC50,HT-29,705 nM
same,IC50,RKO,22.7 nM
